Test systems include RPMI-8226; HCC 2998; U-251; ACHN; HL-60; SK-MEL-28; SNB-19; LOX IMVI; CAKI-1; NCI-H522; SN12C; UACC-257; A549; TK-10; M14; OVCAR-4.
Common to all, as to assay: NCI-60 cell line screen, 48 h

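Interpolation was linear, between the two tested concentrations surrounding the appropriate level; five concentrations were tested over 48 hours in 96-well plates. GI50 marks 50% less growth.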 The source made the active and inactive calls. Rule as the data show it: active = GI50 up to about 1.1 µM and inactive = higher.

On to `CCC12CCCN(Cc3ccccc3)C1c1c(n(C)c3ccccc13)CC2` (stereo not drawn), for which the GI50 in the assay with RPMI-8226 was 92.7 µM (inactive); in the assay with HCC 2998 it was 151 µM (inactive); in the assay with U-251, 247 µM (inactive); in the assay on ACHN it was 246 µM (inactive); with HL-60, 106 µM (inactive); with SK-MEL-28, > 253 µM (inactive). For the same compound, the GI50 is > 253 µM (inactive) in the assay on SNB-19; 236 µM (inactive) in the assay with LOX IMVI; > 253 µM (inactive) in the assay on CAKI-1; 61.1 µM (inactive) in the assay on NCI-H522; 149 µM (inactive) with SN12C; 107 µM (inactive) with UACC-257. Besides, the GI50 in the assay on A549 was > 25.3 µM (inactive); in the assay with TK-10, > 253 µM (inactive).

In the case of `C/C(CC(=O)Nc1ccccc1[N+](=O)[O-])=N\NC(N)=O`, the GI50 with RPMI-8226, in the assay with HCC 2998, in the assay with U-251, in the assay on ACHN, with HL-60 and with SK-MEL-28 was > 100 µM (inactive) throughout. Also, the GI50 in the assay with LOX IMVI, in the assay on NCI-H522, in the assay on UACC-257, with A549, in the assay with M14 and with TK-10 was > 100 µM (inactive) throughout.

As for `COc1ccc(C(=O)O)c(Cc2cccc3ccccc23)c1`, the GI50 in the assay with HCC 2998, in the assay on U-251, in the assay on ACHN, in the assay on HL-60, with SK-MEL-28 and in the assay on SNB-19 was > 100 µM (inactive) throughout. The GI50 is > 100 µM (inactive) in the assay on LOX IMVI; 73.5 µM (inactive) in the assay on CAKI-1; > 100 µM (inactive) in the assay on NCI-H522; > 100 µM (inactive) with SN12C; > 100 µM (inactive) in the assay on UACC-257; > 100 µM (inactive) with A549. In addition, the GI50 with OVCAR-4, with M14 and with TK-10 was > 100 µM (inactive) in each case.

Regarding `O=C(NC1C(=O)NNC1c1cccc([N+](=O)[O-])c1)c1ccccc1` (stereo not drawn), the GI50 was > 100 µM (inactive) with RPMI-8226; > 100 µM (inactive) in the assay with HCC 2998; > 100 µM (inactive) in the assay on U-251; > 100 µM (inactive) in the assay on ACHN; 90.8 µM (inactive) in the assay with HL-60; > 100 µM (inactive) with SK-MEL-28. Besides, the GI50 with SNB-19, in the assay with LOX IMVI, in the assay with SN12C, in the assay with UACC-257, with A549 and in the assay on OVCAR-4 was > 100 µM (inactive) each time. The GI50 in the assay on M14 and in the assay with TK-10 was > 100 µM (inactive) throughout.

Take `COc1cc(C2c3cc4c(cc3C(NCC(O)CO)C3COC(=O)[C@H]23)OCO4)cc(OC)c1OC` (stereo partly drawn): the GI50 in the assay on RPMI-8226 is 0.321 µM (active); with HCC 2998, 0.428 µM (active); in the assay with U-251 it was 0.236 µM (active); in the assay with ACHN, 0.69 µM (active); in the assay with HL-60, 0.0785 µM (active); with SK-MEL-28, 0.617 µM (active). Further, the GI50 is 0.356 µM (active) in the assay on SNB-19; 0.146 µM (active) in the assay with LOX IMVI; 0.0405 µM (active) with NCI-H522; 0.466 µM (active) in the assay with SN12C; > 100 µM (inactive) with UACC-257; 0.533 µM (active) in the assay with M14. Besides, the GI50 with TK-10 was > 100 µM (inactive).
